{"source": "PubChem BioAssay (NCI)", "experiment_in_all_cases": "NCI-60 cell line screen, 48 h", "key": {"CCRF-CEM leukemia": {"test_system": "CCRF-CEM leukemia"}, "T-47D breast": {"test_system": "T-47D breast"}, "OVCAR-5 ovarian": {"test_system": "OVCAR-5 ovarian"}, "SN12C renal": {"test_system": "SN12C renal"}, "OVCAR-8 ovarian": {"test_system": "OVCAR-8 ovarian"}, "HS 578T breast": {"test_system": "HS 578T breast"}, "HT29 colon": {"test_system": "HT29 colon"}, "UO-31 renal": {"test_system": "UO-31 renal"}, "HOP-62 NSCLC": {"test_system": "HOP-62 NSCLC"}, "SK-OV-3 ovarian": {"test_system": "SK-OV-3 ovarian"}, "SF-268 CNS": {"test_system": "SF-268 CNS"}, "SR leukemia": {"test_system": "SR leukemia"}, "MALME-3M melanoma": {"test_system": "MALME-3M melanoma"}, "HCT-15 colon": {"test_system": "HCT-15 colon"}, "EKVX NSCLC": {"test_system": "EKVX NSCLC"}, "PC-3 prostate": {"test_system": "PC-3 prostate"}, "NCI-H23 lung": {"test_system": "NCI-H23 lung"}, "NCI-H522 lung": {"test_system": "NCI-H522 lung"}, "SK-MEL-28 melanoma": {"test_system": "SK-MEL-28 melanoma"}, "SK-MEL-5 melanoma": {"test_system": "SK-MEL-5 melanoma"}, "DU-145 prostate": {"test_system": "DU-145 prostate"}, "M14 melanoma": {"test_system": "M14 melanoma"}, "CAKI-1 renal": {"test_system": "CAKI-1 renal"}, "U251 CNS": {"test_system": "U251 CNS"}, "SNB-75 CNS": {"test_system": "SNB-75 CNS"}, "SF-539 CNS": {"test_system": "SF-539 CNS"}, "MDA-MB-435": {"test_system": "MDA-MB-435"}}, "note": "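The compound was tested at five concentrations on cells cultured in 96-well plates, with a 48-hour exposure period. The concentration for 50% growth inhibition is given as GI50. TGI marks complete inhibition of growth.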", "data": [{"compound": "O=C(O)c1ccc2nc(-c3ccc(OCCCCCOc4ccc(-c5nc6ccc(C(=O)O)cc6[nH]5)cc4)cc3)[nH]c2c1", "values": [{"measurement": "TGI", "setting": "CCRF-CEM leukemia", "result": 44.2, "unit": "µM"}, {"measurement": "GI50", "setting": "T-47D breast", "result": "> 100", "unit": "µM"}, {"measurement": "TGI", "setting": "T-47D breast", "result": "> 100", "unit": "µM"}, {"measurement": "GI50", "setting": "OVCAR-5 ovarian", "result": "> 100", "unit": "µM"}, {"measurement": "TGI", "setting": "OVCAR-5 ovarian", "result": "> 100", "unit": "µM"}, {"measurement": "GI50", "setting": "SN12C renal", "result": "> 100", "unit": "µM"}, {"measurement": "TGI", "setting": "SN12C renal", "result": "> 100", "unit": "µM"}, {"measurement": "GI50", "setting": "OVCAR-8 ovarian", "result": "> 100", "unit": "µM"}, {"measurement": "TGI", "setting": "OVCAR-8 ovarian", "result": "> 100", "unit": "µM"}, {"measurement": "GI50", "setting": "HS 578T breast", "result": "> 100", "unit": "µM"}, {"measurement": "TGI", "setting": "HS 578T breast", "result": "> 100", "unit": "µM"}, {"measurement": "GI50", "setting": "HT29 colon", "result": "> 100", "unit": "µM"}, {"measurement": "TGI", "setting": "HT29 colon", "result": "> 100", "unit": "µM"}, {"measurement": "GI50", "setting": "UO-31 renal", "result": "> 100", "unit": "µM"}, {"measurement": "TGI", "setting": "UO-31 renal", "result": "> 100", "unit": "µM"}, {"measurement": "GI50", "setting": "HOP-62 NSCLC", "result": "> 100", "unit": "µM"}, {"measurement": "TGI", "setting": "HOP-62 NSCLC", "result": "> 100", "unit": "µM"}, {"measurement": "GI50", "setting": "SK-OV-3 ovarian", "result": "> 100", "unit": "µM"}, {"measurement": "TGI", "setting": "SK-OV-3 ovarian", "result": "> 100", "unit": "µM"}, {"measurement": "GI50", "setting": "SF-268 CNS", "result": "> 100", "unit": "µM"}, {"measurement": "TGI", "setting": "SF-268 CNS", "result": "> 100", "unit": "µM"}, {"measurement": "GI50", "setting": "SR leukemia", "result": 22.3, "unit": "µM"}, {"measurement": "TGI", "setting": "SR leukemia", "result": 48.6, "unit": "µM"}, {"measurement": "GI50", "setting": "MALME-3M melanoma", "result": "> 100", "unit": "µM"}, {"measurement": "TGI", "setting": "MALME-3M melanoma", "result": "> 100", "unit": "µM"}, {"measurement": "GI50", "setting": "HCT-15 colon", "result": "> 100", "unit": "µM"}, {"measurement": "TGI", "setting": "HCT-15 colon", "result": "> 100", "unit": "µM"}, {"measurement": "GI50", "setting": "EKVX NSCLC", "result": "> 100", "unit": "µM"}, {"measurement": "TGI", "setting": "EKVX NSCLC", "result": "> 100", "unit": "µM"}, {"measurement": "GI50", "setting": "PC-3 prostate", "result": "> 100", "unit": "µM"}, {"measurement": "TGI", "setting": "PC-3 prostate", "result": "> 100", "unit": "µM"}, {"measurement": "GI50", "setting": "NCI-H23 lung", "result": "> 100", "unit": "µM"}, {"measurement": "TGI", "setting": "NCI-H23 lung", "result": "> 100", "unit": "µM"}, {"measurement": "GI50", "setting": "NCI-H522 lung", "result": "> 100", "unit": "µM"}, {"measurement": "TGI", "setting": "NCI-H522 lung", "result": "> 100", "unit": "µM"}, {"measurement": "GI50", "setting": "SK-MEL-28 melanoma", "result": "> 100", "unit": "µM"}, {"measurement": "TGI", "setting": "SK-MEL-28 melanoma", "result": "> 100", "unit": "µM"}, {"measurement": "GI50", "setting": "SK-MEL-5 melanoma", "result": "> 100", "unit": "µM"}, {"measurement": "TGI", "setting": "SK-MEL-5 melanoma", "result": "> 100", "unit": "µM"}, {"measurement": "GI50", "setting": "DU-145 prostate", "result": "> 100", "unit": "µM"}, {"measurement": "TGI", "setting": "DU-145 prostate", "result": "> 100", "unit": "µM"}, {"measurement": "GI50", "setting": "M14 melanoma", "result": "> 100", "unit": "µM"}, {"measurement": "TGI", "setting": "M14 melanoma", "result": "> 100", "unit": "µM"}, {"measurement": "GI50", "setting": "CAKI-1 renal", "result": "> 100", "unit": "µM"}, {"measurement": "TGI", "setting": "CAKI-1 renal", "result": "> 100", "unit": "µM"}, {"measurement": "GI50", "setting": "U251 CNS", "result": "> 100", "unit": "µM"}, {"measurement": "TGI", "setting": "U251 CNS", "result": "> 100", "unit": "µM"}, {"measurement": "GI50", "setting": "SNB-75 CNS", "result": "> 100", "unit": "µM"}, {"measurement": "TGI", "setting": "SNB-75 CNS", "result": "> 100", "unit": "µM"}, {"measurement": "GI50", "setting": "SF-539 CNS", "result": "> 100", "unit": "µM"}, {"measurement": "TGI", "setting": "SF-539 CNS", "result": "> 100", "unit": "µM"}, {"measurement": "GI50", "setting": "MDA-MB-435", "result": "> 100", "unit": "µM"}, {"measurement": "TGI", "setting": "MDA-MB-435", "result": "> 100", "unit": "µM"}]}]}
